Columns and labels:
HepG2 = assay: Cytotoxicity against human HepG2 cells assessed as reduction in cell growth after 3 days by MTT assay; format: functional, cell-based; conditions: HepG2, 72 h
KB = assay: Cytotoxicity against human KB cells assessed as reduction in cell growth after 3 days by MTT assay; format: functional, cell-based; conditions: 72 h

SMILES	IC50 (HepG2) [nM]	IC50 (KB) [nM]
CCOC(=O)/C(C)=C/[C@H](C(C)C)N(C)C(=O)[C@@H](NC(=O)[C@@H](NC)C(C)(C)c1ccc(Br)cc1)C(C)(C)C	6	12
CCOC(=O)/C(C)=C/[C@H](C(C)C)N(C)C(=O)[C@@H](NC(=O)[C@H](NC)C(C)(C)c1ccc(Br)cc1)C(C)(C)C	10	172
CCOC(=O)/C(C)=C/[C@H](C(C)C)N(C)C(=O)[C@@H](NC(=O)[C@@H](NC)C(C)(C)c1coc2ccccc12)C(C)(C)C	11	13
CCOC(=O)/C(C)=C/[C@H](C(C)C)N(C)C(=O)[C@@H](NC(=O)[C@H](NC)C(C)(C)c1coc2ccccc12)C(C)(C)C	730	760
CCOC(=O)/C(C)=C/[C@H](C(C)C)N(C)C(=O)[C@@H](NC(=O)[C@@H](NC)C(C)(C)c1ccc2ccccc2c1)C(C)(C)C	13	13
CCOC(=O)/C(C)=C/[C@H](C(C)C)N(C)C(=O)[C@@H](NC(=O)[C@H](NC)C(C)(C)c1ccc2ccccc2c1)C(C)(C)C	144	181
CN[C@H](C(=O)N[C@H](C(=O)N(C)[C@H](/C=C(\C)C(=O)O)C(C)C)C(C)(C)C)C(C)(C)c1ccc(Br)cc1	1.8	1.7
CN[C@@H](C(=O)N[C@H](C(=O)N(C)[C@H](/C=C(\C)C(=O)O)C(C)C)C(C)(C)C)C(C)(C)c1ccc(Br)cc1	13	11
CN[C@H](C(=O)N[C@H](C(=O)N(C)[C@H](/C=C(\C)C(=O)O)C(C)C)C(C)(C)C)C(C)(C)c1coc2ccccc12	1.9	1.7
CN[C@@H](C(=O)N[C@H](C(=O)N(C)[C@H](/C=C(\C)C(=O)O)C(C)C)C(C)(C)C)C(C)(C)c1coc2ccccc12	37	43
CN[C@H](C(=O)N[C@H](C(=O)N(C)[C@H](/C=C(\C)C(=O)O)C(C)C)C(C)(C)C)C(C)(C)c1ccc2ccccc2c1	1.9	1.9
CN[C@@H](C(=O)N[C@H](C(=O)N(C)[C@H](/C=C(\C)C(=O)O)C(C)C)C(C)(C)C)C(C)(C)c1ccc2ccccc2c1	34	14

Source: ChEMBL document CHEMBL3351904, “Synthesis of new bioisosteric hemiasterlin analogues with extremely high cytotoxicity” (Bioorg Med Chem Lett, 2014)
